# Target: T1, human glucagon receptor (Homo sapiens, UniProt P47871)
# T1 construct: made in house; host or cells: FreeStyle CHO cells, transient transfection with pMSRαneo/hGCGR; membrane fraction (35,000 rpm pellet)
# Assay: Glucagon binding inhibitory activity ([125I]-glucagon binding to glucagon receptor membrane protein)
# Conditions: test compound 10 μM; 0.4% DMSO = 0%, non-labeled glucagon 1 μM = 100%
# Method in brief: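 Receptor source was a membrane fraction of transiently transfected CHO cells bearing human receptor; 90 min room-temperature binding, filtration harvest, scintillation counting.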
# T1 sequence (P47871 26-477): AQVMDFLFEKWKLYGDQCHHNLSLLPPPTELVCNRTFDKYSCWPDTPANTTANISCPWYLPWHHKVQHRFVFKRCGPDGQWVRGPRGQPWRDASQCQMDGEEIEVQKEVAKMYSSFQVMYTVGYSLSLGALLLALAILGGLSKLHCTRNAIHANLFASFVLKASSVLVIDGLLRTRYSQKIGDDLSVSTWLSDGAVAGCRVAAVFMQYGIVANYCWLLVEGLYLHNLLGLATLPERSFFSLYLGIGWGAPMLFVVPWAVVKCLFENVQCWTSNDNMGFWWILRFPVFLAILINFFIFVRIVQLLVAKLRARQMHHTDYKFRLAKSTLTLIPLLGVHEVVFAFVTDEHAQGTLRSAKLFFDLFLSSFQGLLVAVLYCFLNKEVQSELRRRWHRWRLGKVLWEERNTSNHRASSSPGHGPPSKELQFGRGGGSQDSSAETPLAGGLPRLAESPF
row,inhibitory rate (%) at 10 μM,Compound
1,92%,"COCCOc1ccc2oc(C(Nc3ccc(C(=O)N(C)CCC(=O)O)cc3)C3CCCCC3)c(C)c2c1 (centres unmarked) [Example A80, 3-[{[4-({cyclohexyl[5-(2-methoxyethoxy)-3-methyl-1-benzofuran-2-yl]methyl}amino)phenyl]carbonyl}(methyl)amino]propanoic acid]"
2,80%,"COc1ccc2oc(C(Nc3ccc(C(=O)N(C)CCC(=O)O)cc3)C3CCCCC3)c(C)c2c1 (centres unmarked) [Example A43, 3-{[(4-{[cyclohexyl(5-methoxy-3-methyl-1-benzofuran-2-yl)methyl]amino}phenyl)carbonyl](methyl)amino}propanoic acid]"

# Same assay, conditions: test compound 10 μM; 0.4% DMSO = 0%, non-labeled glucagon 1 μM = 100%; read-out: inhibitory rate (%) at 10 μM
row,Compound,inhibition at 10 µM
1,"CCOc1cccc(-n2cc(C(Nc3ccc(C(=O)NCC(C)C(=O)O)cc3)C3CCCCC3)c(CC)n2)c1 (centres unmarked) [Example 92, 3-({[4-({cyclohexyl[1-(3-ethoxyphenyl)-3-ethyl-1H-pyrazol-4-yl]methyl}amino)phenyl]carbonyl}amino)-2-methylpropanoic acid]",56%
2,"COCc1nn(-c2ccccc2)cc1C(Nc1ccc(C(=O)N(C)CCC(=O)O)cc1)C1CCCCC1 (centres unmarked) [Example 38, 3-[{[4-({cyclohexyl[3-(methoxymethyl)-1-phenyl-1H-pyrazol-4-yl]methyl}amino)phenyl]carbonyl}(methyl)amino]propanoic acid]",53%
3,"COCc1nn(-c2ccc(OC)cc2)cc1C(Nc1ccc(C(=O)NCCC(=O)O)cc1)C1CCCCC1 (centres unmarked) [Example 35, 3-({[4-({cyclohexyl[3-(methoxymethyl)-1-(4-methoxyphenyl)-1H-pyrazol-4-yl]methyl}amino)phenyl]carbonyl}amino)propanoic acid]",75%
4,"CCOc1cccc(-n2cc(C(CC(C)C)Nc3ccc(C(=O)NCCC(=O)O)cc3)c(CC)n2)c1 (centres unmarked) [Example 86, 3-({[4-({1-[1-(3-ethoxyphenyl)-3-ethyl-1H-pyrazol-4-yl]-3-methylbutyl}amino)phenyl]carbonyl}amino)propanoic acid]",76%
5,"CCn1nc(-c2ccc(C(F)(F)F)cc2)cc1C(Nc1ccc(C(=O)NCCC(=O)O)cc1)C1CCCCC1 (centres unmarked) [Example 56, 3-[({4-[(cyclohexyl{1-ethyl-3-[4-(trifluoromethyl)phenyl]-1H-pyrazol-5-yl}methyl)amino]phenyl}carbonyl)amino]propanoic acid]",76%
6,"COc1nn(-c2ccc(OC(F)(F)F)cc2)cc1C(Nc1ccc(C(=O)NCCC(=O)O)cc1)C1CCCCC1 (centres unmarked) [Example 62, 3-[({4-[(cyclohexyl{3-methoxy-1-[4-(trifluoromethoxy)phenyl]-1H-pyrazol-4-yl}methyl)amino]phenyl}carbonyl)amino]propanoic acid]",68%
7,"Cc1c(C(Nc2ccc(C(=O)NCCC(=O)O)cc2)C2CCCCC2)sc2ccccc12 (centres unmarked) [Example A10, 3-{[(4-{[cyclohexyl(3-methyl-1-benzothiophen-2-yl)methyl]amino}phenyl)carbonyl]amino}propanoic acid]",80%
8,"O=C(O)CCNC(=O)c1ccc(NC(c2cn(-c3ccc(C(F)(F)F)cn3)nc2C2CC2)C2CCCCC2)cc1 (centres unmarked) [Example 9, 3-[({4-[(cyclohexyl{3-cyclopropyl-1-[5-(trifluoromethyl)pyridin-2-yl]-1H-pyrazol-4-yl}methyl)amino]phenyl}carbonyl)amino]propanoic acid]",74%
9,"COCc1nn(-c2cccc(C(F)(F)F)n2)cc1C(Nc1ccc(C(=O)NCCC(=O)O)cc1)C1CCCCC1 (centres unmarked) [Example 91, 3-[({4-[(cyclohexyl{3-(methoxymethyl)-1-[6-(trifluoromethyl)pyridin-2-yl]-1H-pyrazol-4-yl}methyl)amino]phenyl}carbonyl)amino]propanoic acid]",71%
10,"Cc1nn(-c2ccccc2Cl)cc1C(Nc1ccc(C(=O)N(C)CCC(=O)O)cc1)C1CCCCC1 (centres unmarked) [Example 73, 3-[{[4-({[1-(2-chlorophenyl)-3-methyl-1H-pyrazol-4-yl](cyclohexyl)methyl}amino)phenyl]carbonyl}(methyl)amino]-propanoic acid]",59%
11,"Cc1sc2ccccc2c1C(Nc1ccc(C(=O)N(C)CCC(=O)O)cc1)C1CCCCC1 (centres unmarked) [Example A9, 3-{[(4-{[cyclohexyl(2-methyl-1-benzothiophen-3-yl)methyl]amino}phenyl)carbonyl](methyl)amino}propanoic acid]",67%
12,"Cc1c(C(Nc2ccc(C(=O)N(C)CCC(=O)O)cn2)C2CCCCC2)oc2ccc(F)cc12 (centres unmarked) [Example A52, 3-{[(6-{[cyclohexyl(5-fluoro-3-methyl-1-benzofuran-2-yl)methyl]amino}pyridin-3-yl)carbonyl](methyl)amino}propanoic acid]",64%
13,"CC(C)Oc1nn(-c2ccc(OC(F)(F)F)cc2)cc1C(Nc1ccc(C(=O)NCCC(=O)O)cc1)C1CCCCC1 (centres unmarked) [Example 64, 3-[({4-[(cyclohexyl{3-(1-methylethoxy)-1-[4-(trifluoromethoxy)phenyl]-1H-pyrazol-4-yl}methyl)amino]phenyl}carbonyl)amino]propanoic acid]",70%
14,"COc1cccc(-n2cc(C(Nc3ccc(C(=O)N(C)CCC(=O)O)cc3)C3CCCCC3)c(C)n2)c1 (centres unmarked) [Example 70, 3-[{[4-({cyclohexyl[1-(3-methoxyphenyl)-3-methyl-1H-pyrazol-4-yl]methyl}amino)phenyl]carbonyl}(methyl)amino]propanoic acid]",75%
15,"O=C(O)CCNC(=O)c1ccc(NC(c2cn(-c3ccc(OC(F)(F)F)cc3)nc2OCc2ccccc2)C2CCCCC2)cc1 (centres unmarked) [Example 60, 3-{[(4-{[{3-(benzyloxy)-1-[4-(trifluoromethoxy)phenyl]-1H-pyrazol-4-yl}(cyclohexyl)methyl]amino}phenyl)carbonyl]amino}propanoic acid]",71%

# Further lines, results first:
row,inhibition at 10 µM,Compound
1,86%,"Cc1c(C(Nc2ccc(C(=O)NCCC(=O)O)cc2)C2CCCCC2)oc2ccc(OCc3ccc(Cl)nc3)cc12 (centres unmarked) [Example A169, 3-{[(4-{[{5-[(6-chloropyridin-3-yl)methoxy]-3-methyl-1-benzofuran-2-yl}(cyclohexyl)methyl]amino}phenyl)carbonyl]amino}propanoic acid]"
2,57%,"Cc1c(C(COc2ccccc2)Nc2ccc(C(=O)NCCC(=O)O)cc2)oc2ccccc12 (centres unmarked) [Example A94, 3-{[(4-{[1-(3-methyl-1-benzofuran-2-yl)-2-phenoxyethyl]amino}phenyl)carbonyl]amino}propanoic acid]"
3,77%,"COCCN(C)c1ccc2oc(C(Nc3ccc(C(=O)N(C)CCC(=O)O)cc3)C3CCCCC3)c(C)c2c1 (centres unmarked) [Example A188, 3-[({4-[(cyclohexyl{5-[(2-methoxyethyl)(methyl)amino]-3-methyl-1-benzofuran-2-yl}methyl)amino]phenyl}carbonyl)(methyl)amino]propanoic acid]"
4,82%,"Cc1c(C(Nc2ccc(C(=O)N(C)CCC(=O)O)nc2)C(C)C)oc2ccc(OCc3ccccc3)cc12 (centres unmarked) [Example A172, 3-[{[5-({1-[5-(benzyloxy)-3-methyl-1-benzofuran-2-yl]-2-methylpropyl}amino)pyridin-2-yl]carbonyl}(methyl)amino]propanoic acid]"
5,99%,"CSCCOc1ccc2oc(C(Nc3ccc(C(=O)N(C)CCC(=O)O)cc3)C3CCCCC3)c(C)c2c1 (centres unmarked) [Example A147, 3-[({4-[(cyclohexyl{3-methyl-5-[2-(methylthio)ethoxy]-1-benzofuran-2-yl}methyl)amino]phenyl}carbonyl)(methyl)amino]propanoic acid]"
6,68%,"Cc1c(C(Nc2ccc(C(=O)N(C)CCC(=O)O)cc2)C2CCCCC2)oc2ccc(Br)nc12 (centres unmarked) [Example A126, 3-{[(4-{[(5-bromo-3-methylfuro[3,2-b]pyridin-2-yl)(cyclohexyl)methyl]amino}phenyl)carbonyl](methyl)amino}-propanoic acid]"
7,74%,"Cc1c(C(CC(C)C)Nc2ccc(C(=O)N(C)CCC(=O)O)cc2)oc2ccc(OCc3ccccc3)cc12 (centres unmarked) [Example A159, 3-[{[4-({1-[5-(benzyloxy)-3-methyl-1-benzofuran-2-yl]-3-methylbutyl}amino)phenyl]carbonyl}(methyl)amino]propanoic acid]"
8,96%,"Cc1c(C(Nc2ccc(C(=O)N(C)CCC(=O)O)cc2)C2CCCCC2)oc2ccc(-c3ccccc3)cc12 (centres unmarked) [Example A176, 3-{[(4-{[cyclohexyl(3-methyl-5-phenyl-1-benzofuran-2-yl)methyl]amino}phenyl)carbonyl](methyl)amino}propanoic acid]"
9,86%,"Cc1c(C(Nc2ccc(C(=O)N(C)CCC(=O)O)cc2)C(C)C)oc2ccc(OC3CCSCC3)cc12 (centres unmarked) [Example A204, 3-(methyl{[4-({2-methyl-1-[3-methyl-5-(tetrahydro-2H-thiopyran-4-yloxy)-1-benzofuran-2-yl]propyl}amino)phenyl]carbonyl}amino)propanoic acid]"
10,75%,"Cc1c(C(Nc2ccc(C(=O)NCCC(=O)O)cc2)C2CCCCC2)sc2cnccc12 (centres unmarked) [Example A137, 3-{[(4-{[cyclohexyl(3-methylthieno[2,3-c]pyridin-2-yl)methyl]amino}phenyl)carbonyl]amino}propanoic acid]"
11,88%,"Cc1c(C(Nc2ccc(C(=O)N(C)CCC(=O)O)cc2)C2CCCCC2)oc2ccc(OC3CCS(=O)(=O)CC3)cc12 (centres unmarked) [Example A199, 3-[({4-[(cyclohexyl{5-[(1,1-dioxidotetrahydro-2H-thiopyran-4-yl)oxy]-3-methyl-1-benzofuran-2-yl}methyl)amino]phenyl}carbonyl)(methyl)amino]propanoic acid]"
12,83%,"Cc1c(C(Nc2ccc(C(=O)N(C)CCC(=O)O)cc2)C(C)C)oc2ccc(OC3CCOCC3)cc12 (centres unmarked) [Example A180, 3-(methyl{[4-({2-methyl-1-[3-methyl-5-(tetrahydro-2H-pyran-4-yloxy)-1-benzofuran-2-yl]propyl}amino)phenyl]carbonyl}amino)propanoic acid]"
